# Experiments:
# [1] = Decomposition rate studies (half-life of azo and peroxide portions); assay type: physicochemical
# Procedure: The temperatures at which the polymerizations are carried out will depend upon the polymerization technique; the monomer, solvent or suspending medium; and the physical properties desired in the polymer; but most of all upon the azo-peroxide initiator and the method chosen to decompose the azo or peroxide portion of the initiator. Activation of the peroxide portion by amines, reducing agents, transition metal carboxylates, etc., can be carried out from below -20° C up to its normal decomposition temperature. The same is true for activation of the peroxide or azo portions by irradiation. Irradiation sources can be ultra-violet radiation, and in the presence of photosensitizers (e.g. certain azo dyes) visible light can also be used. The temperatures used for the thermal decompositions of the azo or peroxide portions will depend upon the thermal stability (half-life) of the azo or peroxide grouping in the molecule. These half-lives can be determined quantitatively for each azo-peroxide compound by conventional methods i.e. gas evolution, and iodometric, ultra-violet, or gas chromatographic analytical techniques to determine the rate of disappearance of each portion (azo or peroxide) at any given temperature. (Such half-life data were determined for the compounds made in Examples 1 to 5.) […]
# Its infrared spectrum was in agreement with the above structure showing both peresters and acid chloride carbonyl absorption bands. […] Apparently, the perester undergoes induced decomposition at this relatively high temperature.
# [2] = Storage stability; assay type: physicochemical
compound,measurement,setting,value
"CC1(C#N)CCC(=O)OOC(=O)CCC(C)(C#N)N=N1 (stereo not shown) [Example 1, 6,9-Dimethyl-6,9-dicyano-Δ^7,1,2-dioxa-7,8-diazacyclododecan-3,12-dione]",t1/2 of azo portion,"[1]; 70° C, o-dichlorobenzene",≈ 236 minutes
same,t1/2 of diacyl peroxide portion,"[1]; 70° C, o-dichlorobenzene",≈ 99 minutes
same,storage stability,[2],more than one month
"CC(C#N)(CCC(=O)OOC(C)(C)C)N=NC(C)(C#N)CCC(=O)OOC(C)(C)C (stereo not drawn) [Example 4, Di-t-butylperoxy Ester of cis-4,4'-Azobis(4-cyanovalericacid)]",t1/2 of azo portion,"[1]; 80° C, trichlorobenzene",≈ 92 minutes
same,t1/2 of perester portion,"[1]; 80° C, trichlorobenzene",≈ 319 minutes
same,change of infrared spectrum on standing (room temperature stability),[2]; two days at 21° C,not changed
"CC(C#N)(CCC(=O)Cl)N=NC(C)(C#N)CCC(=O)OOC(C)(C)C (stereo not drawn) [Example 5, mono-t-Butylperoxy Ester of the Diacid Chloride of trans-4,4'-Azobis(4-cyanovaleric acid)]",decomposition order of azo and perester linkages,"[1]; 90° C, dioctyl phthalate",decompose simultaneously
